Source: patent publication US12319695B2, “Sulfonamide derivative with fused pyrimidine skeleton, having epidermal growth factor receptor mutation inhibitory effect” (HANMI PHARM. CO., LTD., priority 2018, dated 2025)
Entries after “also recorded” stand apart in the source; their conditions may differ. Where two headings read alike, the source gives them in different places.

Assays:
[1] = tested on: PC9 EGFR del19/T790M/C797S cells; test: PC9 EGFR del19/T790M/C797S cell growth inhibition test (CellTiter-Glo, 72 hours); assay type: cell-based; conditions: Homo sapiens, PC-9, PC9 cell line overexpressing EGFR del19/T790M/C797S
Description: For cell growth conditions, an RPMI Medium 1640 (1×) containing 10% FBS and 1% penicillin/straptomycin (Gibco BRL) was used.
Specifically, the cell line stored in a liquid nitrogen tank was taken out, rapidly dissolved at 37° C., and thereafter centrifuged to remove the cryopreservation medium. The recovered cell pellets were well mixed in a culture medium, put into a culture flask, and passaged under conditions of 37° C. and 5% carbon dioxide to stabilize the cells to logarithmic cell growth phase. Thereafter, cells were taken from the flask, centrifuged to remove the culture medium, washed with Dulbecco's phosphate buffered saline (DPBS), and then centrifuged again to remove DPBS, and then diluted with a culture medium to have 1×10^5 cells/ml. The diluted cells were dispensed into a 96-well plate at 100 μl per well. The compounds prepared in the above examples were each dissolved in 99.5% dimethylsulfoxide (hereinafter, DMSO, cell culture grade) to a concentration of 10 mM. The DMSO solution containing each compound was diluted with a culture medium to a concentration of 30 μM, and then tenfold serial dilution was used to prepare a solution diluted upto 0.3 nM (in order to reach a final DMSO concentration of 1% or less).
The cells treated with the test solution were cultured under conditions of 37° C. and 5% carbon dioxide for 72 hours. After the 96-well plate in which the cells were cultured was acclimated to room temperature for 30 minutes, CellTiter-Glo® Luminescent Cell Assay Reagent (CTG, Promega) was dispensed at 50 μl per well. After stabilizing luminescence signals for 10 minutes, the luminescence intensity was measured with a microplate reader.
Based on the measured value, a […] value of each compound, which is the concentration at which cell growth is inhibited by 50%, was calculated with respect to 100% of the value obtained by subtracting the initial cell density value of a well not treated with a test material from the final cell density value thereof. The GI50 value of each compound was calculated using nonlinear regression of GraphPad Prism; log[inhibitor] vs. normalized response analysis.

[2] = tested on: Ba/F3 EGFR del19/T790M/C797S cells; test: Ba/F3 EGFR del19/T790M/C797S cell growth inhibition test (CellTiter-Glo, 72 hours); assay type: cell-based; conditions: for GI50: read-out: Ba/F3 EGFR del19/T790M/C797S cells, GI50;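 on all read-outs here: compounds tested in tenfold steps from 10 µM down to 0.1 nM, with luminescence read on a microplate reader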
Description: Specifically, the cell line stored in a liquid nitrogen tank was taken out, rapidly dissolved at 37° C., and thereafter centrifuged to remove the cryopreservation medium. The recovered cell pellets were well mixed in a culture medium, put into a culture flask, and passaged under conditions of 37° C. and 5% carbon dioxide to stabilize the cells to the logarithmic growth phase. Thereafter, cells were taken from the flask, centrifuged to remove the culture medium, washed with Dulbecco's phosphate buffered saline (DPBS), and then centrifuged again to remove DPBS, and then diluted with a culture medium to have 1×10^5 cells/ml. The diluted cells were dispensed into a 96-well plate at 100 μl per well. […] The DMSO solution containing each compound was diluted with a culture medium to a concentration of 30 μM, and then tenfold serial dilution was used to prepare a solution diluted upto 0.3 nM (in order to reach a final DMSO concentration of 1% or less).
50 μl of a test solution of each compound was added each time to the 96-well plate in which the cells were dispensed, thus reaching a final concentration of 10 μM to 0.1 nM in 150 μl per well. The cells treated with the test solution were cultured under conditions of 37° C. and 5% carbon dioxide for 72 hours. After the 96-well plate in which the cells were cultured was acclimated to room temperature for 30 minutes, CellTiter-Glo® Luminescent Cell Assay Reagent (CTG, Promega) was dispensed at 50 μl per well. After stabilizing luminescence signals for 10 minutes, the luminescence intensity was measured with a microplate reader.

EGFR L858R/T790M/C797S = molecular target: T1, EGFR L858R/T790M/C797S (Homo sapiens, UniProt P00533, C797S/L858R/T790M); test: EGFR enzyme inhibitory activity evaluation (Z'-LYTE kinase assay), L858R/T790M/C797S; assay type: biochemical
T1 construct: purchased Thermo Fisher Scientific Inc
Description: (§1) For this, a Z′-LYTE kinase assay kit (ThermoFisher Scientific, PV3191) was used, and the kinases used were purchased from Thermo Fisher Scientific Inc. A simple test method is summarized as follows.
(§2) Each kinase was diluted to a concentration of 7-45 ng/assay using a kinase buffer (50 mM HEPES (pH 7.5), 10 mM MgCl2, 4 mM MnCl2, 2 mM DTT, 1 mM EGTA, 0.01% BRIJ-35, or 50 mM HEPES (pH 6.5), 10 mM MgCl2, 1 mM EGTA, 0.01% BRIJ-35, 0.02% NaN3). The test was performed on 384 well plates (well polystyrene flat-bottomed plates). First, after 5 μl of a diluted compound solution was added, a protein substrate at a concentration as specified in the kit, 10 μl of a kinase mixed solution, and 5 μl of a 10-100 μM ATP solution were added to the sample and reacted at room temperature for 60 minutes in a stirrer. Thereafter, 10 μl of a coloring solution was added each to cause a fluorescence reaction of the peptide substrate for 60 minutes, and 10 μl of a stopping solution was added each to terminate the reaction.

EGFR WT = molecular target: T2, EGFR WT (Homo sapiens, UniProt P00533); test: EGFR enzyme inhibitory activity evaluation (Z'-LYTE kinase assay), WT; assay type: biochemical
T2 construct: purchased Thermo Fisher Scientific Inc
Description: as §1, §2

EGFR T790M/L858R = molecular target: T3, EGFR T790M/L858R (Homo sapiens, UniProt P00533, L858R/T790M); test: EGFR enzyme inhibitory activity evaluation (Z'-LYTE kinase assay), T790M/L858R; assay type: biochemical
T3 construct: purchased Thermo Fisher Scientific Inc
Description: as §1, §2

[3] = Ba/F3 cell line overexpressing EGFR del19/T790M/C797S, 72 hours, CellTiter-Glo

T2 sequence (P00533 25-1210): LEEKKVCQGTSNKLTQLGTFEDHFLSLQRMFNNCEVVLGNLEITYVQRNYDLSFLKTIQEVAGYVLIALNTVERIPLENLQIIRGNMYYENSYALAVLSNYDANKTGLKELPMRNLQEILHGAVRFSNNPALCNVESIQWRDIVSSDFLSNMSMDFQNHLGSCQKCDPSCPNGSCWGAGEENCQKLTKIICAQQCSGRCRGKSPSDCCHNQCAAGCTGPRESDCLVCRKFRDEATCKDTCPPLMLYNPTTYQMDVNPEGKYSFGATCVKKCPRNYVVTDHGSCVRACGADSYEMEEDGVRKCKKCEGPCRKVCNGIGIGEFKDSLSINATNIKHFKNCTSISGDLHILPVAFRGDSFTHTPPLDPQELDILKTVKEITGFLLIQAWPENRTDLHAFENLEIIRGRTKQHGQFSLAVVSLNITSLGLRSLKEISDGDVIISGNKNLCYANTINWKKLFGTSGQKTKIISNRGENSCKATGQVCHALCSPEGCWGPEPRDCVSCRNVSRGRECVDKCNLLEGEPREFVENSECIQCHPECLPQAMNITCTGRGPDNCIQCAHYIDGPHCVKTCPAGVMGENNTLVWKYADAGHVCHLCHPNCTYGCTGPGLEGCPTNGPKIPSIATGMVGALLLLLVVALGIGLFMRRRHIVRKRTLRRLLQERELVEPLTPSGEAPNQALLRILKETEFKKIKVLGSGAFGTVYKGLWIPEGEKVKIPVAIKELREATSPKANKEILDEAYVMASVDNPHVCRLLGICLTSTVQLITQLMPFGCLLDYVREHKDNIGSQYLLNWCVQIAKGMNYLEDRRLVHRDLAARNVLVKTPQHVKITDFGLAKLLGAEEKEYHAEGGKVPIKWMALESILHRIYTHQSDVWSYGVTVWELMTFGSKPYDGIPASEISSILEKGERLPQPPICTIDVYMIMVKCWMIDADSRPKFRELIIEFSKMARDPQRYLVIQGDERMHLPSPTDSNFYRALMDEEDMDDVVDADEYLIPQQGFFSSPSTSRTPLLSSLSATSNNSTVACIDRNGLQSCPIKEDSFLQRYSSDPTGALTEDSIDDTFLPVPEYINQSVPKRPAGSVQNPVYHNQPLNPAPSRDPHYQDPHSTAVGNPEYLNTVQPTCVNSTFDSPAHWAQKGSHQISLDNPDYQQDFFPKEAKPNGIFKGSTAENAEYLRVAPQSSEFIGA
T3 sequence (P00533 25-1210 T790M/L858R): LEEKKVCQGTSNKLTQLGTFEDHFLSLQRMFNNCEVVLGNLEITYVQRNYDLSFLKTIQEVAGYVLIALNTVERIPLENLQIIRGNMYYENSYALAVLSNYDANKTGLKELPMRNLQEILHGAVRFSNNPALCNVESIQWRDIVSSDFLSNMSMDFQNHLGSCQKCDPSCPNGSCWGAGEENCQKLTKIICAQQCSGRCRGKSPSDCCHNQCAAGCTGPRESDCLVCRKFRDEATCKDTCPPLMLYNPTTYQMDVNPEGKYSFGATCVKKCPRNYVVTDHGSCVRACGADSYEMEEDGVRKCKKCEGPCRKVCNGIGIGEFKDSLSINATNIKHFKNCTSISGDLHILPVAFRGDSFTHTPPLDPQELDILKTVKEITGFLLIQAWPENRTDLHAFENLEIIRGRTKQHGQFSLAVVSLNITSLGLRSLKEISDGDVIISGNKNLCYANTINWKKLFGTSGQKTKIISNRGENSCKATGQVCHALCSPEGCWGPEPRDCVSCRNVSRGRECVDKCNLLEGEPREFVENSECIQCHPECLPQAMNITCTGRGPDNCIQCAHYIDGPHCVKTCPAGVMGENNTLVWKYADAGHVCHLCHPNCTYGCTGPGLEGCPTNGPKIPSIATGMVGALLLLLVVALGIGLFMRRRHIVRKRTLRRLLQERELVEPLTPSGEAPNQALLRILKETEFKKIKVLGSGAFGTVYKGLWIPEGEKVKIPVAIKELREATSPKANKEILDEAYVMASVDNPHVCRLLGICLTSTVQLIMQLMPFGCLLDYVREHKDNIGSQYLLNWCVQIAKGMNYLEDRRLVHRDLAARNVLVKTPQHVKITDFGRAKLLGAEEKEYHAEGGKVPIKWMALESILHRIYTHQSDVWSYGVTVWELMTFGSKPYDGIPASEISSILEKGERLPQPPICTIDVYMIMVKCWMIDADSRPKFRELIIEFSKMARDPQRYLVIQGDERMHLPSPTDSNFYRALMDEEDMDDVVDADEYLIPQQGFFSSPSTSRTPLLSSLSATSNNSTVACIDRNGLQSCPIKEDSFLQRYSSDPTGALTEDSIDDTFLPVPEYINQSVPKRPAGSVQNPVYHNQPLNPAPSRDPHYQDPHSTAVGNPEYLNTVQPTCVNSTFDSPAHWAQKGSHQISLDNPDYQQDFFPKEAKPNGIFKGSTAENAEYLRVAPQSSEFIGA
T1 sequence (P00533 25-1210 T790M/C797S/L858R): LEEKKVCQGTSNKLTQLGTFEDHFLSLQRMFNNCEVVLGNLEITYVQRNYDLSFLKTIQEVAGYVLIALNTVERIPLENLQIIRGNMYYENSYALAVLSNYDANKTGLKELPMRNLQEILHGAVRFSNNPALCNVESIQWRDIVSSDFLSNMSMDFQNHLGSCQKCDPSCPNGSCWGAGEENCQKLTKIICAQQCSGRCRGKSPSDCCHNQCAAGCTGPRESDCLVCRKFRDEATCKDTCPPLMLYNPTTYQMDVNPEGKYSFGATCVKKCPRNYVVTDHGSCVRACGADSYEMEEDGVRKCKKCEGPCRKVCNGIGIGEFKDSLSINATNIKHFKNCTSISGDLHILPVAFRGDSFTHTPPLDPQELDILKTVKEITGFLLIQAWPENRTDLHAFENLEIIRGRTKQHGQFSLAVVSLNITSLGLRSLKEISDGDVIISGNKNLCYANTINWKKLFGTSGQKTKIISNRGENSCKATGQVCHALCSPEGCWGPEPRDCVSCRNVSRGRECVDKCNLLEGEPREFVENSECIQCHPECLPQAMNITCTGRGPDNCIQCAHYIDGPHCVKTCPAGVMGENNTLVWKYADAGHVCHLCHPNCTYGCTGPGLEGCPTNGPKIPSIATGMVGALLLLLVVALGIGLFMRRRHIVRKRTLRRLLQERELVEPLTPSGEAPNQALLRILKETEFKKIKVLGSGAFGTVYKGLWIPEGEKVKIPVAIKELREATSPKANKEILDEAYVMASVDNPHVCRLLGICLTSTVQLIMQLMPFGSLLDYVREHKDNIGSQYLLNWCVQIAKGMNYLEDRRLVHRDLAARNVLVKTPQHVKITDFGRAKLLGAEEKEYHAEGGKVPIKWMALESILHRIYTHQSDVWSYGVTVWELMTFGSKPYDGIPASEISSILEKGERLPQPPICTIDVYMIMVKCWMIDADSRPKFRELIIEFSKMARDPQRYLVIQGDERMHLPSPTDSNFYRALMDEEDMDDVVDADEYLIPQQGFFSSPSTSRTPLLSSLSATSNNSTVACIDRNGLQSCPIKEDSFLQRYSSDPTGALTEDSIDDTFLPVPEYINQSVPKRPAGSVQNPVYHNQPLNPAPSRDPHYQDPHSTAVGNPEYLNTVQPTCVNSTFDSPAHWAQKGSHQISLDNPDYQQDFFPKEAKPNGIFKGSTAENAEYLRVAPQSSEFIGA

Compound	GI50 [1] [µM]	GI50 [2, 3] [µM]	further results
CCN1CCN(c2ccc(Nc3nc(Nc4ccccc4N(C)S(C)(=O)=O)c4cc[nH]c4n3)cc2F)CC1 [Example 8, N-(2-((2-((3-fluoro-4-(4-ethylpiperazin-1-yl)phenyl)amino)-7H-pyrrolo[2,3-d]pyrimidine-4-yl)amino)phenyl)-N-methylmethanesulfonamide]	0.201	0.01	–
CC(C)N1CCN(c2ccc(Nc3nc(Nc4ccccc4N(C)S(C)(=O)=O)c4cc[nH]c4n3)cc2F)CC1 [Example 9, N-(2-((2-((3-fluoro-4-(4-isopropylpiperazin-1-yl)phenyl)amino)-7H-pyrrolo[2,3-d]pyrimidine-4-yl)amino)phenyl)-N-methylmethanesulfonamide]	0.42	–	–
CCCN1CCN(c2ccc(Nc3nc(Nc4ccccc4N(C)S(C)(=O)=O)c4cc[nH]c4n3)cc2F)CC1 [Example 10, N-(2-((2-((3-fluoro-4-(4-propylpiperazin-1-yl)phenyl)amino)-7H-pyrrolo[2,3-d]pyrimidine-4-yl)amino)phenyl)-N-methylmethanesulfonamide]	0.538	–	–
CN(c1ccccc1Nc1nc(Nc2ccc(N3CCN(C4CC4)CC3)c(F)c2)nc2[nH]ccc12)S(C)(=O)=O [Example 11, N-(2-((2-((3-fluoro-4-(4-cyclopropylpiperazin-1-yl)phenyl)amino)-7H-pyrrolo[2,3-d]pyrimidine-4-yl)amino)phenyl)-N-methylmethanesulfonamide]	0.641	–	–
CN1CCN(C2CCN(c3ccc(Nc4nc(Nc5ccccc5N(C)S(C)(=O)=O)c5cc[nH]c5n4)cc3F)CC2)CC1 [Example 13, N-(2-((2-((3-fluoro-4-(4-(4-methylpiperazin-1-yl)piperidin-1-yl)phenyl)amino)-7H-pyrrolo[2,3-d]pyrimidine-4-yl)amino)phenyl)-N-methylmethanesulfonamide]	0.267	0.011	–
CCN1CCN(C2CCN(c3ccc(Nc4nc(Nc5ccccc5N(C)S(C)(=O)=O)c5cc[nH]c5n4)cc3F)CC2)CC1 [Example 14, N-(2-((2-((3-fluoro-4-(4-(4-ethylpiperazin-1-yl)piperidin-1-yl)phenyl)amino)-7H-pyrrolo[2,3-d]pyrimidine-4-yl)amino)phenyl)-N-methylmethanesulfonamide]	0.126	0.015	IC50 (EGFR L858R/T790M/C797S): 0.004 µM; IC50 (EGFR WT): 4.49 µM; IC50 (EGFR T790M/L858R): 0.0029 µM
CC(C)N1CCN(C2CCN(c3ccc(Nc4nc(Nc5ccccc5N(C)S(C)(=O)=O)c5cc[nH]c5n4)cc3F)CC2)CC1 [Example 15, N-(2-((2-((3-fluoro-4-(4-(4-isopropylpiperazin-1-yl)piperidin-1-yl)phenyl)amino)-7H-pyrrolo[2,3-d]pyrimidine-4-yl)amino)phenyl)-N-methylmethanesulfonamide]	0.131	–	–
CCCN1CCN(C2CCN(c3ccc(Nc4nc(Nc5ccccc5N(C)S(C)(=O)=O)c5cc[nH]c5n4)cc3F)CC2)CC1 [Example 16, N-(2-((2-((3-fluoro-4-(4-(4-propylpiperazin-1-yl)piperidin-1-yl)phenyl)amino)-7H-pyrrolo[2,3-d]pyrimidine-4-yl)amino)phenyl)-N-methylmethanesulfonamide]	0.16	–	IC50 (EGFR L858R/T790M/C797S): 0.004 µM; IC50 (EGFR WT): 1.53 µM; IC50 (EGFR T790M/L858R): 0.0027 µM
CN(c1ccccc1Nc1nc(Nc2ccc(N3CCC(N4CCN(C5CC5)CC4)CC3)c(F)c2)nc2[nH]ccc12)S(C)(=O)=O [Example 17, N-(2-((2-((3-fluoro-4-(4-(4-cyclopropylpiperazin-1-yl)piperidin-1-yl)phenyl)amino)-7H-pyrrolo[2,3-d]pyrimidine-4-yl)amino)phenyl)-N-methylmethanesulfonamide]	0.311	–	–
CCN1CCN(c2c(F)cc(Nc3nc(Nc4ccccc4N(C)S(C)(=O)=O)c4cc[nH]c4n3)cc2F)CC1 [Example 26, N-(2-((2-((4-(4-ethylpiperazin-1-yl)-3,5-difluorophenyl)amino)-7H-pyrrolo[2,3-d]pyrimidine-4-yl)amino)phenyl)-N-methylmethanesulfonamide]	0.369	–	–
CN1CC2(C1)CN(c1ccc(Nc3nc(Nc4ccccc4N(C)S(C)(=O)=O)c4cc[nH]c4n3)cc1F)C2 [Example 36, N-(2-((2-((3-fluoro-4-(6-methyl-2,6-diazaspiro[3.3]heptan-2-yl)phenyl)amino)-7H-pyrrolo[2,3-d]pyrimidine-4-yl)amino)phenyl)-N-methylmethanesulfonamide]	–	0.02	IC50 (EGFR L858R/T790M/C797S): 0.013 µM; IC50 (EGFR WT): 2.19 µM; IC50 (EGFR T790M/L858R): 0.012 µM
CN1CCN(c2ccc(Nc3nc(Nc4ccccc4NS(C)(=O)=O)c4cc[nH]c4n3)cc2F)CC1 [Example 42, N-(2-((2-((3-fluoro-4-(4-methylpiperazin-1-yl)phenyl)amino)-7H-pyrrolo[2,3-d]pyrimidine-4-yl)amino)phenyl)methanesulfonamide]	0.951	0.123	–
CCN1CCN(c2ccc(Nc3nc(Nc4ccccc4NS(C)(=O)=O)c4cc[nH]c4n3)cc2F)CC1 [Example 49, N-(2-((2-((4-(4-ethylpiperazin-1-yl)-3-fluorophenyl)amino)-7H-pyrrolo[2,3-d]pyrimidine-4-yl)amino)phenyl)methanesulfonamide]	0.858	–	–
CCN1CCN(C2CCN(c3ccc(Nc4nc(Nc5ccccc5NS(C)(=O)=O)c5cc[nH]c5n4)cc3F)CC2)CC1 [Example 53, N-(2-((2-((4-(4-(4-ethylpiperazin-1-yl)piperidin-1-yl)-3-fluorophenyl)amino)-7H-pyrrolo[2,3-d]pyrimidine-4-yl)amino)phenyl)methanesulfonamide]	0.698	0.007	–
CCN1CCN(C2CCN(c3ccc(Nc4nc(Nc5ccccc5N(C)S(=O)(=O)CC)c5cc[nH]c5n4)cc3F)CC2)CC1 [Example 54, N-(2-((2-((4-(4-(4-ethylpiperazin-1-yl)piperidin-1-yl)-3-fluorophenyl)amino)-7H-pyrrolo[2,3-d]pyrimidine-4-yl)amino)phenyl)-N-methylethanesulfonamide]	0.53	–	–
CCN1CCC2(CCN(c3ccc(Nc4nc(Nc5ccccc5N(C)S(=O)(=O)CC)c5cc[nH]c5n4)cc3F)CC2)C1 [Example 56, N-(2-((2-((4-(2-ethyl-2,8-diazaspiro[4.5]decan-8-yl)-3-fluorophenyl)amino)-7H-pyrrolo[2,3-d]pyrimidine-4-yl)amino)phenyl)-N-methylethanesulfonamide]	0.564	–	–
CN1CCN(C2CCN(c3ccc(Nc4nc(Nc5ccccc5N(C)S(C)(=O)=O)c5ccn(C)c5n4)cc3F)CC2)CC1 [Example 65, N-(2-((2-((3-fluoro-4-(4-(4-methylpiperazin-1-yl)piperidin-1-yl)phenyl)amino)-7-methyl-7H-pyrrolo[2,3-d]pyrimidine-4-yl)amino)phenyl)-N-methylmethanesulfonamide]	3.38	–	–
C=CC(=O)Nc1cc(Nc2nccc(-c3cn(C)c4ccccc34)n2)c(OC)cc1N(C)CCN(C)C [Osimertinib, reference compound]	–	–	proliferation inhibitory effect in Ba/F3 cell line (in words) [2]: did not show proliferation inhibitory activity; also recorded: extremely insignificant inhibitory effect; GI50 ([2]; Ba/F3 EGFR-Del19/T790M/C797S, 72 h): > 1 µM; GI50 [2]: 1.12 µM
